{"source": "paper PMC11149885", "about": "(PLOS ONE, 2024)", "key": {"[1]": {"target": "T1, FGFR3 (Homo sapiens, UniProt P22607)", "T1 construct": "purchased Reaction Biology Corporation (contract assay)", "experiment": "HotSpot kinase screen", "type": "biochemical", "conditions": "10μM ATP"}, "[2]": {"target": "T2, PDGFRβ (Homo sapiens, UniProt P09619)", "T2 construct": "purchased Reaction Biology Corporation (contract assay)", "T2 sequence (P09619 33-1106)": "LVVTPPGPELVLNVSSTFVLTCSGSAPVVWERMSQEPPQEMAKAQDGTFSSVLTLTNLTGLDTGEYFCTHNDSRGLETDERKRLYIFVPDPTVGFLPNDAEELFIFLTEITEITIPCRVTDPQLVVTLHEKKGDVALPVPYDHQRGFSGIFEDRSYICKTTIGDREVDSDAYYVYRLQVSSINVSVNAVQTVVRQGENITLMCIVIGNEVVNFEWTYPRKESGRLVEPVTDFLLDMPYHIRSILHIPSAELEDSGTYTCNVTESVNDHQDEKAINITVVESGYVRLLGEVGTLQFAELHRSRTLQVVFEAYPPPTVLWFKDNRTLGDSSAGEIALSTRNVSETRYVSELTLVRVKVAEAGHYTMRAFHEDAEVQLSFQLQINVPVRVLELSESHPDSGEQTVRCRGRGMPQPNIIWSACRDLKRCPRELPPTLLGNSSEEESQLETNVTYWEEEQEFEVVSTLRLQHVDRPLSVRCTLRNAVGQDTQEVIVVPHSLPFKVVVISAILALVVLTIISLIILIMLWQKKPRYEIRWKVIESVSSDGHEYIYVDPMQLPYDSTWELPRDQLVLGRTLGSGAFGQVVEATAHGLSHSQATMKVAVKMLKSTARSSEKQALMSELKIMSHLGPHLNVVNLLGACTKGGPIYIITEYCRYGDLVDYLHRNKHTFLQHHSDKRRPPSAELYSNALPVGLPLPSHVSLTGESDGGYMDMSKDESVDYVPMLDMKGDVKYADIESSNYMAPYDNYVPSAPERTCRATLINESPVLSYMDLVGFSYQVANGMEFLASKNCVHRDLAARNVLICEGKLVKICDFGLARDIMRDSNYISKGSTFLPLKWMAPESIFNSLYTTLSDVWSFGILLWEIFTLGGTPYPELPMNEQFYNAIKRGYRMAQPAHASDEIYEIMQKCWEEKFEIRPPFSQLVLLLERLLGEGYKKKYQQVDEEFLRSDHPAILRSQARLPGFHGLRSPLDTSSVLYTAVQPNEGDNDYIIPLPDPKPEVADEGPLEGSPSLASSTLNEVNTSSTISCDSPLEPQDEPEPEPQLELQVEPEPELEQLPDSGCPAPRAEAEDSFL", "experiment": "HotSpot kinase screen", "type": "biochemical", "conditions": "10μM ATP"}, "[3]": {"target": "T3, VEGFR2 (Homo sapiens, UniProt P35968)", "T3 construct": "purchased Millipore Corporation (Dundee, Scotland) or Reaction Biology Corporation (contract assay)", "T3 sequence (P35968 20-1356)": "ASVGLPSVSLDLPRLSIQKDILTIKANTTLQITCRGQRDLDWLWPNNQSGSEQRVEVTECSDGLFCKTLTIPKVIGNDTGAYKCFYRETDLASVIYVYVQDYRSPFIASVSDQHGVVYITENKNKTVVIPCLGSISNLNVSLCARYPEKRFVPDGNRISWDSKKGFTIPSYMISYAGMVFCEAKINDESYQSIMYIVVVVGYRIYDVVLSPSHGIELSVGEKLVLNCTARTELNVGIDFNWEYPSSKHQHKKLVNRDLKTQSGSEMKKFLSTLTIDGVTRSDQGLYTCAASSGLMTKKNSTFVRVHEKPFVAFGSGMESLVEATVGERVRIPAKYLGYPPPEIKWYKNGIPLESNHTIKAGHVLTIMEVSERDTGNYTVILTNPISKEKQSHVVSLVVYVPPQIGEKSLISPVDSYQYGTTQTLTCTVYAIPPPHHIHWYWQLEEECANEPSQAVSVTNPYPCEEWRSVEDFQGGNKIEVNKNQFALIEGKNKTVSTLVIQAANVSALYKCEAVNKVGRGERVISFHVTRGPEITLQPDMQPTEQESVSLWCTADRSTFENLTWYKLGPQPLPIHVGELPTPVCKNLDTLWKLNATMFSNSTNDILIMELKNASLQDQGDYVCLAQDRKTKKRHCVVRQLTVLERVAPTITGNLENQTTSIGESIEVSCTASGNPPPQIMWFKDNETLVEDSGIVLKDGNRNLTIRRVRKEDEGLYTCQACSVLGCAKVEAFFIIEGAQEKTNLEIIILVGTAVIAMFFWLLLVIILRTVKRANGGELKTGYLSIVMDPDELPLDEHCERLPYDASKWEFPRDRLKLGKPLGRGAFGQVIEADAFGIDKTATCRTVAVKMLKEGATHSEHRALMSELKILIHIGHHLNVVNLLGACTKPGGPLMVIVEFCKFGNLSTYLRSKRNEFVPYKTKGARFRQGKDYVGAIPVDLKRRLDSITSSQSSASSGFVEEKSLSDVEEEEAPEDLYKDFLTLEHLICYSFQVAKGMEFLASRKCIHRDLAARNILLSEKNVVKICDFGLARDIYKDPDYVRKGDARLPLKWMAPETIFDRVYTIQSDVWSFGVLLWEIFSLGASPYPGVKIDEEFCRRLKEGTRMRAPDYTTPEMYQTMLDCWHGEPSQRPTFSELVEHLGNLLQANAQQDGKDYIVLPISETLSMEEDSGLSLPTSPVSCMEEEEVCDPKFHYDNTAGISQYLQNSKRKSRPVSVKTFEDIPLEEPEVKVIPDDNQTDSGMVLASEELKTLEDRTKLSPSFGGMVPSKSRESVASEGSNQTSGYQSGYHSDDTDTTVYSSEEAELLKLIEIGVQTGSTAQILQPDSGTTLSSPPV", "experiment": "HotSpot kinase screen", "type": "biochemical", "conditions": "10μM ATP"}, "[4]": {"test_system": "synthetic melanin", "experiment": "in vitro"}, "[5]": {"target": "T4, FGFR1 (Homo sapiens, UniProt P11362)", "T4 construct": "purchased Reaction Biology Corporation (contract assay)", "experiment": "HotSpot kinase screen", "type": "biochemical", "conditions": "10μM ATP"}, "[6]": {"target": "T3, VEGFR2", "conditions": "cited from earlier work"}, "[7]": {"target": "T5, VEGFR3 (Homo sapiens, UniProt P35916)", "T5 construct": "purchased Millipore Corporation (Dundee, Scotland) or Reaction Biology Corporation (contract assay)", "T5 sequence (P35916 25-1363)": "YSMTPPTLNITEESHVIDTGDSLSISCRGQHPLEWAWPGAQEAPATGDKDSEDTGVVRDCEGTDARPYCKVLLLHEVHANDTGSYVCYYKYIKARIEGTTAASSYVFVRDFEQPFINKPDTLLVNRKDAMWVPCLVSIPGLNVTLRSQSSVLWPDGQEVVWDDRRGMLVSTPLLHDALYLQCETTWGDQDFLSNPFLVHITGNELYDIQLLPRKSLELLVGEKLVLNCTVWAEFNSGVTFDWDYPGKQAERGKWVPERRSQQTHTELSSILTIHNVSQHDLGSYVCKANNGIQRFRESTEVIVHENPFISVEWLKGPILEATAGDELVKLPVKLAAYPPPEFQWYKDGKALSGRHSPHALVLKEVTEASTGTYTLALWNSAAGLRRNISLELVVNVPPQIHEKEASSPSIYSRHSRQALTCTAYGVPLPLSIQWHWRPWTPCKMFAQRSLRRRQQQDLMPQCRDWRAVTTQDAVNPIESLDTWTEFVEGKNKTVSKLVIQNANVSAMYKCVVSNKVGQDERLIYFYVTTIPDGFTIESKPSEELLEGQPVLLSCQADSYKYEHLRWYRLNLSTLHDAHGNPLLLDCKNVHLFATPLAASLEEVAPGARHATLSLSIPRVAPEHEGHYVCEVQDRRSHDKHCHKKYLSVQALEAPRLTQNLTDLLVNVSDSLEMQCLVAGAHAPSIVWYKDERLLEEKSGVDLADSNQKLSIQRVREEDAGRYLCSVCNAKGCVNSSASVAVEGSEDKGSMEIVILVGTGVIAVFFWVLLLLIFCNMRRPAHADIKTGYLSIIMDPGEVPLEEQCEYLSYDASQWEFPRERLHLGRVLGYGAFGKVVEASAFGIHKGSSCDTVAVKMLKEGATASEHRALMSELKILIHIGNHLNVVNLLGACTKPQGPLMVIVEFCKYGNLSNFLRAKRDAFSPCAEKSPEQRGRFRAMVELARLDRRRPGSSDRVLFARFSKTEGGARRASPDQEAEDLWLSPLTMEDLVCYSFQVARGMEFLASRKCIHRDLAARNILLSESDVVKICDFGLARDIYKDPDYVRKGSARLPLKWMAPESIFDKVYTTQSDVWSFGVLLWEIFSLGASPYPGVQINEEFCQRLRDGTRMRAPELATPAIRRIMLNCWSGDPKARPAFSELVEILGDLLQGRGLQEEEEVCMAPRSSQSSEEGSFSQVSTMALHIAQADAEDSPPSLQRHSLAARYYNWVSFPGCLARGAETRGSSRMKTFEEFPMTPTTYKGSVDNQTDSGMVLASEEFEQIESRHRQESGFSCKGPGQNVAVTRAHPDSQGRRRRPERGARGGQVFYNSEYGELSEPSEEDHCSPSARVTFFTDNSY", "experiment": "Ten-dose IC50 measurement", "type": "biochemical", "conditions": "10μM ATP"}, "[8]": {"target": "TIE2 (Homo sapiens, UniProt Q02763)", "sequence (Q02763 23-1124)": "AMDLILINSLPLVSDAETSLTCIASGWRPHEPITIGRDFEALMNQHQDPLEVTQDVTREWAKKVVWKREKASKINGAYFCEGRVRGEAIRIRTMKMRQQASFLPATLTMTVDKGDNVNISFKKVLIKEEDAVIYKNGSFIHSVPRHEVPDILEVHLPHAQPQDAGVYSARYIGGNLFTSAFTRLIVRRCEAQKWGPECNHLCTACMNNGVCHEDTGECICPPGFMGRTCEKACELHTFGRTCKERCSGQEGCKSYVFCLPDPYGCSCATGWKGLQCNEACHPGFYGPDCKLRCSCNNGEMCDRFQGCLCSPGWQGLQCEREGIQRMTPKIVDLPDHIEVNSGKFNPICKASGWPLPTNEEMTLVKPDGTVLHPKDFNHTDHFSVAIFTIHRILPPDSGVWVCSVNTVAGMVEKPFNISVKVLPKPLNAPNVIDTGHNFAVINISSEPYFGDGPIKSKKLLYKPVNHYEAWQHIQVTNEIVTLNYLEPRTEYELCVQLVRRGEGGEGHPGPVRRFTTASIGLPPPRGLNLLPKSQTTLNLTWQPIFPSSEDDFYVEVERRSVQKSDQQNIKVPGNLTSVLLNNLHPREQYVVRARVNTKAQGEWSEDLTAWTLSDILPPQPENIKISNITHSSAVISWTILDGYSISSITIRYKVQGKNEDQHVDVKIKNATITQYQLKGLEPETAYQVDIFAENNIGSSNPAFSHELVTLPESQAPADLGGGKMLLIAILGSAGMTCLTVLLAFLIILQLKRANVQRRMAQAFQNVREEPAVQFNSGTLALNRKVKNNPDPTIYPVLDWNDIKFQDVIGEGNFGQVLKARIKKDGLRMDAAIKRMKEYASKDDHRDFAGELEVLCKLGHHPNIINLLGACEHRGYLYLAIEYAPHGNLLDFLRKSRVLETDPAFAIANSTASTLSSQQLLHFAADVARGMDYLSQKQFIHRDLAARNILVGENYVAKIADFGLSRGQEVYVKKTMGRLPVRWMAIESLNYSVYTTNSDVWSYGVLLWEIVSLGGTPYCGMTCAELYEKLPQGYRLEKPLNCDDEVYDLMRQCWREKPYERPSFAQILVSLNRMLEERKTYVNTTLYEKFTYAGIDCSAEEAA", "experiment": "HotSpot kinase screen", "type": "biochemical", "set-up": "purchased Reaction Biology Corporation (contract assay)", "conditions": "10μM ATP"}, "[9]": {"target": "VEGFR1 (Homo sapiens, UniProt P17948)", "experiment": "HotSpot kinase screen", "type": "biochemical", "set-up": "purchased Millipore Corporation (Dundee, Scotland) or Reaction Biology Corporation (contract assay)", "conditions": "10μM ATP", "experimental": "Measurement of kinase activity was performed by Reaction Biology Corporation (Reaction Biology Corporation, Malvern, PA), using the HotSpot™ assay. The screen focused on RTKs reported in the literature to play a major role in the regulation of angiogenesis (VEGFR1, VEGFR2, and VEGFR3; fibroblast growth factor receptor [FGFR] 1, 2, and 3; and platelet-derived growth factor receptor beta [PDGFRβ]) as well as an RTK essential for maintaining blood vessel stability (TIE2). For the profiling, specific kinase/substrate pairs and required cofactors were prepared in a reaction buffer (20mM Hepes [pH 7.5], 10mM MgCl2, 1mM EGTA, 0.02% Brij35, 0.02 mg/mL BSA, 0.1mM Na3VO4, 2mM DTT, 1% dimethyl sulfoxide [DMSO]). TKI compounds were diluted to 10μM and 1μM concentrations for the screens and after addition to the reaction buffer incubated for 20 minutes, followed by the addition of a mixture of ATP (Sigma, St. Louis, MO) and ^33P-ATP (Perkin Elmer, Waltham, MA) to a final ATP concentration of 10μM. Reactions were carried out at room temperature for 2 hours, followed by spotting of the reactions onto P81 ion exchange filter paper (Whatman Inc., Piscataway, NJ). Unbound phosphate was removed by extensive washing of the filters. […] Kinome TREEspot images representing levels of inhibition were prepared using Kinome Mapper (https://www.reactionbiology.com/resources/tools/kinase-mapper)."}}, "note": "Read-outs that look alike come from different tables or passages of the source.", "data": [{"compound": "Cc1[nH]c(/C=C2\\C(=O)Nc3ccc(F)cc32)c(C)c1C(=O)N[C@H]1CCN(C(=O)N(C)C)C1", "note": "[Vorolanib]", "values": [{"measurement": "Avg % Inhibition FGFR3", "setting": "[1]; 1uM TKI", "result": 63.96, "unit": "%"}, {"measurement": "Avg % Inhibition FGFR3", "setting": "[1]; 10uM TKI", "result": 86.13, "unit": "%"}, {"measurement": "Avg % Inhibition PDGFRb", "setting": "[2]; 1uM TKI", "result": 83.57, "unit": "%"}, {"measurement": "Avg % Inhibition PDGFRb", "setting": "[2]; 10uM TKI", "result": 94.8, "unit": "%"}, {"measurement": "Avg % Inhibition VEGFR2", "setting": "[3]; 1uM TKI", "result": 74.78, "unit": "%"}, {"measurement": "Avg % Inhibition VEGFR2", "setting": "[3]; 10uM TKI", "result": 86.6, "unit": "%"}, {"measurement": "fraction unbound at 1 h", "setting": "[4]", "result": 0.857}, {"measurement": "Avg % Inhibition FGFR1", "setting": "[5]; 1uM TKI", "result": 28.53, "unit": "%"}, {"measurement": "Avg % Inhibition FGFR1", "setting": "[5]; 10uM TKI", "result": 65.32, "unit": "%"}, {"measurement": "IC50", "setting": "[6]; determined by Millipore Corporation prior to the study, read-out: VEGFR2 IC50 (used to set CAM doses)", "result": 52, "unit": "nM"}, {"measurement": "IC50", "setting": "[6]; previously reported, read-out: VEGFR2 IC50", "result": 1.12, "unit": "nM"}, {"measurement": "IC50", "setting": "[7]; S1 Dataset, read-out: IC50 VEGFR3", "result": "3.39e-08", "unit": "M"}, {"measurement": "%Activity VEGFR3", "setting": "[7]; 1.00E-05 M TKI", "result": 2.39, "unit": "%"}, {"measurement": "%Activity VEGFR3", "setting": "[7]; 1.11E-06 M TKI", "result": 8.63, "unit": "%"}, {"measurement": "%Activity VEGFR3", "setting": "[7]; 1.23E-07 M TKI", "result": 30.49, "unit": "%"}, {"measurement": "%Activity VEGFR3", "setting": "[7]; 1.37E-08 M TKI", "result": 60.22, "unit": "%"}, {"measurement": "%Activity VEGFR3", "setting": "[7]; 1.52E-09 M TKI", "result": 79.65, "unit": "%"}, {"measurement": "%Activity VEGFR3", "setting": "[7]; 3.33E-06 M TKI", "result": 4.43, "unit": "%"}, {"measurement": "%Activity VEGFR3", "setting": "[7]; 3.70E-07 M TKI", "result": 18.98, "unit": "%"}, {"measurement": "%Activity VEGFR3", "setting": "[7]; 4.12E-08 M TKI", "result": 44.44, "unit": "%"}, {"measurement": "%Activity VEGFR3", "setting": "[7]; 4.57E-09 M TKI", "result": 68.37, "unit": "%"}, {"measurement": "%Activity VEGFR3", "setting": "[7]; 5.08E-10 M TKI", "result": 81.12, "unit": "%"}, {"measurement": "IC50", "setting": "[7]; Fig 3A inset, unit inferred, plot axes in (M), read-out: Compound IC50 data for VEGFR-3: IC50", "result": "3.39e-08", "unit": "M"}, {"measurement": "Avg % Inhibition TIE2", "setting": "[8]; 1uM TKI", "result": 4.09, "unit": "%"}, {"measurement": "Avg % Inhibition TIE2", "setting": "[8]; 1uM TKI, listed as vorolanib", "result": 4, "unit": "%"}, {"measurement": "Avg % Inhibition TIE2", "setting": "[8]; 10uM TKI", "result": 21.27, "unit": "%"}, {"measurement": "Avg % Inhibition TIE2", "setting": "[8]; 10uM TKI, listed as vorolanib", "result": 21, "unit": "%"}, {"measurement": "Avg % Inhibition VEGFR1", "setting": "[9]; 1uM TKI", "result": 54.61, "unit": "%"}, {"measurement": "Avg % Inhibition VEGFR1", "setting": "[9]; 10uM TKI", "result": 77.43, "unit": "%"}]}]}
